In US20100041089A1, “IMPROVED METHOD FOR DETECTING CHEMICAL […]” (priority 2006, published 2010):

Tested on: yeast genes (expressed mRNA)
Assay: DNA chip measurement of expressed mRNA of yeast genes after culture with a toxic chemical substance
Type: cell-based, Saccharomyces cerevisiae S288C
Procedure, shortened: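 Yeast S288C, YPD 25° C; toxicant at log phase, 2 h, sublethal growth-inhibiting conc.; no-chemical control. Hot SDS/acetate RNA extraction, oligo-dT mRNA, Cy3/Cy5-dUTP RT. Whole-genome chip, 65° C >12 h. Readout: treated/control intensity ratio, ≥2 significant.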

For `C=CC=O` [(14), Acrolein], the “The level of expressed mRNA in the presence of chemical substance/The level of expressed mRNA in the absence of chemical substance” value (yeast gene YMR316W, cultured two hours with substance) was 1.3, the “The level of expressed mRNA in the presence of chemical substance/The level of expressed mRNA in the absence of chemical substance” value (yeast gene YNL036W) was 5.1 and the “The level of expressed mRNA in the presence of chemical substance/The level of expressed mRNA in the absence of chemical substance” value (yeast gene YNL044W, cultured two hours with substance) was 1.2. The “The level of expressed mRNA in the presence of chemical substance/The level of expressed mRNA in the absence of chemical substance” value (yeast gene YNL074C, cultured two hours with substance) was 0.6, the “The level of expressed mRNA in the presence of chemical substance/The level of expressed mRNA in the absence of chemical substance” value (yeast gene YNL092W, cultured two hours with substance) was 1.2 and the “The level of expressed mRNA in the presence of chemical substance/The level of expressed mRNA in the absence of chemical substance” value (yeast gene YNL115C, cultured two hours with substance) was 1.0. For the same compound, the “The level of expressed mRNA in the presence of chemical substance/The level of expressed mRNA in the absence of chemical substance” value (yeast gene YNL155W, cultured two hours with substance) was 2.1, the “The level of expressed mRNA in the presence of chemical substance/The level of expressed mRNA in the absence of chemical substance” value (yeast gene YNL156C, cultured two hours with substance) was 1.4 and the “The level of expressed mRNA in the presence of chemical substance/The level of expressed mRNA in the absence of chemical substance” value (yeast gene YNL190W, cultured two hours with substance) was 0.6. The “The level of expressed mRNA in the presence of chemical substance/The level of expressed mRNA in the absence of chemical substance” value (yeast gene YNL195C, cultured two hours with the chemical substance) was 1.5, the “The level of expressed mRNA in the presence of chemical substance/The level of expressed mRNA in the absence of chemical substance” value (yeast gene YNL208W, cultured two hours with substance) was 1.0 and the “The level of expressed mRNA in the presence of chemical substance/The level of expressed mRNA in the absence of chemical substance” value (yeast gene YNL234W, cultured two hours with substance) was 1.5. The “The level of expressed mRNA in the presence of chemical substance/The level of expressed mRNA in the absence of chemical substance” value (yeast gene YNL281W, cultured two hours with substance) was 1.2, the “The level of expressed mRNA in the presence of chemical substance/The level of expressed mRNA in the absence of chemical substance” value (yeast gene YNL300W, cultured two hours with substance) was 0.8 and the “The level of expressed mRNA in the presence of chemical substance/The level of expressed mRNA in the absence of chemical substance” value (yeast gene YNL305C, cultured two hours with substance) was 1.3. For the same compound, the “The level of expressed mRNA in the presence of chemical substance/The level of expressed mRNA in the absence of chemical substance” value (yeast gene YNL335W) was 4.6, the “The level of expressed mRNA in the presence of chemical substance/The level of expressed mRNA in the absence of chemical substance” value (yeast gene YNR064C, cultured two hours with substance) was 0.8 and the “The level of expressed mRNA in the presence of chemical substance/The level of expressed mRNA in the absence of chemical substance” value (yeast gene YNR068C, cultured two hours with substance) was 1.8. The “The level of expressed mRNA in the presence of chemical substance/The level of expressed mRNA in the absence of chemical substance” value (yeast gene YOL032W, cultured two hours with substance) was 1.3, the “The level of expressed mRNA in the presence of chemical substance/The level of expressed mRNA in the absence of chemical substance” value (yeast gene YOL036W, cultured two hours with substance) was 1.0 and the “The level of expressed mRNA in the presence of chemical substance/The level of expressed mRNA in the absence of chemical substance” value (yeast gene YOL047C, cultured two hours with substance) was 1.2. The “The level of expressed mRNA in the presence of chemical substance/The level of expressed mRNA in the absence of chemical substance” value (yeast gene YOL071W, cultured two hours with substance) was 2.5, the “The level of expressed mRNA in the presence of chemical substance/The level of expressed mRNA in the absence of chemical substance” value (yeast gene YOL082W, cultured two hours with substance) was 1.4 and the “The level of expressed mRNA in the presence of chemical substance/The level of expressed mRNA in the absence of chemical substance” value (yeast gene YOL083W, cultured two hours with substance) was 1.4. The “The level of expressed mRNA in the presence of chemical substance/The level of expressed mRNA in the absence of chemical substance” value (yeast gene YOL117W, cultured two hours with substance) was 1.7, the “The level of expressed mRNA in the presence of chemical substance/The level of expressed mRNA in the absence of chemical substance” value (yeast gene YOL131W, cultured two hours with substance) was 2.3 and the “The level of expressed mRNA in the presence of chemical substance/The level of expressed mRNA in the absence of chemical substance” value (yeast gene YOL150C, cultured two hours with substance) was 5.7. The “The level of expressed mRNA in the presence of chemical substance/The level of expressed mRNA in the absence of chemical substance” value (yeast gene YOL162W, cultured two hours with substance) was 1.4, the “The level of expressed mRNA in the presence of chemical substance/The level of expressed mRNA in the absence of chemical substance” value (yeast gene YOR019W, cultured two hours with substance) was 1.4 and the “The level of expressed mRNA in the presence of chemical substance/The level of expressed mRNA in the absence of chemical substance” value (yeast gene YOR049C, cultured two hours with substance) was 1.5. For the same compound, the “The level of expressed mRNA in the presence of chemical substance/The level of expressed mRNA in the absence of chemical substance” value (yeast gene YOR197W, cultured two hours with substance) was 0.7, the “The level of expressed mRNA in the presence of chemical substance/The level of expressed mRNA in the absence of chemical substance” value (yeast gene YOR248W, cultured two hours with substance) was 0.5 and the “The level of expressed mRNA in the presence of chemical substance/The level of expressed mRNA in the absence of chemical substance” value (yeast gene YOR338W, cultured two hours with substance) was 2.5. The “The level of expressed mRNA in the presence of chemical substance/The level of expressed mRNA in the absence of chemical substance” value (yeast gene YPL052W, cultured two hours with substance) was 3.2, the “The level of expressed mRNA in the presence of chemical substance/The level of expressed mRNA in the absence of chemical substance” value (yeast gene YPL087W, cultured two hours with substance) was 1.2 and the “The level of expressed mRNA in the presence of chemical substance/The level of expressed mRNA in the absence of chemical substance” value (yeast gene YPL171C, cultured for two hours with substance) was 9.3. For the same compound, the “The level of expressed mRNA in the presence of chemical substance/The level of expressed mRNA in the absence of chemical substance” value (yeast gene YPL196W, cultured two hours with substance) was 1.6, the “The level of expressed mRNA in the presence of chemical substance/The level of expressed mRNA in the absence of chemical substance” value (yeast gene YPL206C, cultured two hours with substance) was 1.1 and the “The level of expressed mRNA in the presence of chemical substance/The level of expressed mRNA in the absence of chemical substance” value (yeast gene YPL222W, cultured two hours with substance) was 1.1. The “The level of expressed mRNA in the presence of chemical substance/The level of expressed mRNA in the absence of chemical substance” value (yeast gene YPR023C, cultured two hours with substance) was 0.9, the “The level of expressed mRNA in the presence of chemical substance/The level of expressed mRNA in the absence of chemical substance” value (yeast gene YPR079W, cultured two hours with substance) was 1.3 and the “The level of expressed mRNA in the presence of chemical substance/The level of expressed mRNA in the absence of chemical substance” value (yeast gene YPR151C, cultured two hours with substance) was 1.4.
